For assay [1], the target named is MAPK14 (UniProt Q16539). Briefly: MAPK14 (CSBP) Binding Inhibition.
Assay [2] addresses MAPK14 (UniProt Q16539). Put plainly: TNF Inhibition (In Vivo Assay).

Bounds are passed on as bounds.

MAPK14, sequence (Q16539 whole entry, looked up): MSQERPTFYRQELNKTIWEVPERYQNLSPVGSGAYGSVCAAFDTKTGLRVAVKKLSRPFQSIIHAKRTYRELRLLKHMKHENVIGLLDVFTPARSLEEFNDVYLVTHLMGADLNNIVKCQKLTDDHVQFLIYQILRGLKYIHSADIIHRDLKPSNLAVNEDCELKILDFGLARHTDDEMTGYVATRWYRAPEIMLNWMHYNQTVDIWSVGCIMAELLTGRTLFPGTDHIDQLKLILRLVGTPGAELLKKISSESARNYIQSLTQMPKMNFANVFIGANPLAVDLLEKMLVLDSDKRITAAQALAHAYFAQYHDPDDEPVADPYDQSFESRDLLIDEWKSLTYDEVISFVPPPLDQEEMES

For orientation: IC50 means the concentration needed to halve the response being measured. A lower IC50 goes with greater potency in that assay. In turn, `CSc1nccc(-c2c(-c3ccc(F)cc3)ncn2C2CCC(=O)CC2)n1` showed an IC50 at MAPK14 [1] of under 50 µM.
Still for that read-out and setting: next, `CSc1nccc(-c2c(-c3ccc(F)cc3)ncn2[C@H]2CC[C@H](O)CC2)n1`: under 50 µM.
With `COc1nccc(-c2c(-c3ccc(F)cc3)ncn2C2CCC(=O)CC2)n1`, the IC50 at MAPK14 [1] and in the assay with MAPK14 [2] was under 50 µM each time.
On to `COc1nccc(-c2c(-c3ccc(F)cc3)ncn2[C@H]2CC[C@@](C)(O)CC2)n1.COc1nccc(-c2c(-c3ccc(F)cc3)ncn2[C@H]2CC[C@](C)(O)CC2)n1`, for which the IC50 on MAPK14 [1] and with MAPK14 [2] was under 50 µM in each case.
On to `O=C1CCC(n2cnc(-c3ccc(F)cc3)c2-c2ccnc(O)n2)CC1`, for which, on MAPK14 [1], the IC50 is under 50 µM.
In the case of `CC(C)Oc1nccc(-c2c(-c3ccc(F)cc3)ncn2C2CCC(O)CC2)n1` (stereo unspecified), the IC50 on MAPK14 [1] and with MAPK14 [2] was under 50 µM each time.
With `CC(C)Oc1nccc(-c2c(-c3ccc(F)cc3)ncn2C2CCC(=O)CC2)n1`, the IC50 on MAPK14 [1] and with MAPK14 [2] was under 50 µM in each case.
